Read-outs that look alike come from different tables or passages of the source.
Key:
[1] = tested on: mHTT protein in GM04724 (CAG 70/20) Huntington's disease patient lymphoblast cells; assay: mHTT protein assay, 2B7-MW1 assay via Mesoscale Discovery (MSD); assay type: cell-based, human
Summary of the method: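 Signal from the 2B7-MW1 antibody pair on MSD, rising with polyQ length and smaller HTT fragments, measured mHTT after 48 h compound exposure (0.6 nM–10 μM) in GM04724 cells. A parallel replicate plate gave CellTiter Glo viability.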

[2] = tested on: SMN protein in spinal muscular atrophy (SMA) patient fibroblasts (GM03813, Coriell); assay: SMN protein assay, Mesoscale Discovery (MSD); assay type: cell-based, human; details: for EC50: read-out: SMN2 protein EC50
Summary of the method: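 Absolute SMN levels were quantified by MSD against an SMN protein standard curve (1 μg/ml to 19.5 pg/ml) run on each plate. Samples were lysates of GM03813 patient fibroblasts (7000 cells/well) treated 48 hours with compound doses from 2.5 μM down to 0.6 nM.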

[3] = tested on: MDR1-MDCK cell monolayers; details: dog, MDCK-MDR1, 120 min, 5 μM, pH 7.4
MDR1 (P-gp) = assay: in vitro; details: dog, MDCK-MDR1, pH 7.4
MDR1 = assay: in vitro; details: dog, MDCK-MDR1, pH 7.4
[4] = GM04724 Huntington's disease patient lymphoblasts
[5] = SMA patient fibroblasts GM03813, 48 hours, MSD
[6] = GM04724 (CAG 70/20) Huntington's disease patient lymphoblasts
[7] = SMA patient fibroblasts (GM03813), 48 hours

Row | Compound | mHTT protein EC50 [1, 4] | EC50 [2, 5] | MDCK-MDR1: % Recov A-B [3] | MDCK-MDR1: % Recov B-A [3] | Papp A→B at 120 min, 5 μM (MDR1 (P-gp)) | Papp B→A at 120 min, 5 μM (MDR1 (P-gp)) | efflux ratio at 120 min, 5 μM (MDR1) | SMN2 protein EC50 [2, 5] | mHTT protein EC50 [1, 6] | SMN2 protein EC50 [2, 7] | EC50 [2, 7]
1 | CN(c1ccc(-c2cc3occc(=O)c3cc2O)nn1)[C@H]1C[C@@H]2CC[C@H]([C@H]1F)N2C (single isomer, unassigned) [Compound 94B] | E (501 ≤ E ≤ 10.000) | 101 to 500 nM | 73% | 83% | 4.47 ×10⁻⁶ cm/s | 41.2 ×10⁻⁶ cm/s | 9 | – | – | – | –
2 | CN(c1ccc(-c2cn3c(=O)ccnc3cc2O)nn1)[C@@H]1C[C@H]2CC[C@@H]([C@@H]1F)N2C (single isomer, unassigned) [Compound 95A] | E (501 ≤ E ≤ 10.000) | – | 85% | 115% | 0.15 ×10⁻⁶ cm/s | 8.79 ×10⁻⁶ cm/s | 59 | E (501 ≤ E ≤ 10.000) | – | – | –
3 | CNC(=O)c1cc(O)c(-c2ccc(N(C)[C@@H]3C[C@H]4CC[C@@H]([C@@H]3F)N4C)nn2)cc1F (single isomer, unassigned) [Compound 96A] | E (501 ≤ E ≤ 10.000) | – | 100% | 114% | 2.97 ×10⁻⁶ cm/s | 53.7 ×10⁻⁶ cm/s | 18 | E (501 ≤ E ≤ 10.000) | – | – | –
4 | CNC(=O)c1cc(O)c(-c2ccc(N(C)[C@H]3C[C@@H]4CC[C@H]([C@H]3F)N4C)nn2)cc1F (single isomer, unassigned) [Compound 96B] | E (501 ≤ E ≤ 10.000) | – | 92% | 98% | 2.72 ×10⁻⁶ cm/s | 55.2 ×10⁻⁶ cm/s | 20 | E (501 ≤ E ≤ 10.000) | – | – | –
5 | CN(c1ccc(-c2cc3ccn(C)c(=O)c3cc2O)nn1)[C@@H]1C[C@H]2CC[C@@H]([C@@H]1F)N2C (single isomer, unassigned) [Compound 97A] | E (501 ≤ E ≤ 10.000) | 101 to 500 nM | 73% | 74% | 1.96 ×10⁻⁶ cm/s | 40.3 ×10⁻⁶ cm/s | 20 | – | – | – | –
6 | CN(C)C(=O)c1cc(O)c(-c2ccc(N(C)[C@@H]3C[C@H]4CC[C@@H]([C@@H]3F)N4C)nn2)cc1F (single isomer, unassigned) [Compound 104A] | – | – | 106% | 105% | 1.23 ×10⁻⁶ cm/s | 43.1 ×10⁻⁶ cm/s | 35 | – | E (501 ≤ E ≤ 10.000) | E (501 ≤ E ≤ 10.000) | –
7 | CN(C)C(=O)c1cc(O)c(-c2ccc(N(C)[C@H]3C[C@@H]4CC[C@H]([C@H]3F)N4C)nn2)cc1F (single isomer, unassigned) [Compound 104B] | – | – | 99% | 105% | 0.89 ×10⁻⁶ cm/s | 50.2 ×10⁻⁶ cm/s | 56 | – | E (501 ≤ E ≤ 10.000) | E (501 ≤ E ≤ 10.000) | –
8 | CN(C)C(=O)c1cc2cc(O)c(-c3ccc(N(C)[C@@H]4C[C@H]5CC[C@@H]([C@@H]4F)N5C)nn3)cc2o1 (single isomer, unassigned) [Compound 106A] | – | – | 95% | 92% | 1.87 ×10⁻⁶ cm/s | 63.1 ×10⁻⁶ cm/s | 34 | – | E (501 ≤ E ≤ 10.000) | E (501 ≤ E ≤ 10.000) | –
9 | CN(C)C(=O)c1cc2cc(O)c(-c3ccc(N(C)[C@H]4C[C@@H]5CC[C@H]([C@H]4F)N5C)nn3)cc2o1 (single isomer, unassigned) [Compound 106B] | – | – | 92% | 99% | 1.61 ×10⁻⁶ cm/s | 55.7 ×10⁻⁶ cm/s | 35 | – | E (501 ≤ E ≤ 10.000) | – | 101 to 500 nM
10 | CN(c1ccc(-c2cc3ncn(CC(F)(F)F)c(=O)c3cc2O)nn1)[C@@H]1C[C@H]2CC[C@@H]([C@@H]1F)N2C (single isomer, unassigned) [Compound 108A] | – | – | 82% | 91% | 1.51 ×10⁻⁶ cm/s | 73.7 ×10⁻⁶ cm/s | 49 | – | E (501 ≤ E ≤ 10.000) | E (501 ≤ E ≤ 10.000) | –
11 | CN(c1ccc(-c2cc3ncn(CC(F)(F)F)c(=O)c3cc2O)nn1)[C@H]1C[C@@H]2CC[C@H]([C@H]1F)N2C (single isomer, unassigned) [Compound 108B] | – | – | 102% | 101% | 0.98 ×10⁻⁶ cm/s | 59.5 ×10⁻⁶ cm/s | 61 | – | E (501 ≤ E ≤ 10.000) | E (501 ≤ E ≤ 10.000) | –
12 | CN(c1ccc(-c2cc3ncn(CC(F)(F)F)c(=O)c3cc2O)nn1)[C@@H]1C[C@H]2CCC[C@@H]([C@@H]1F)N2C (single isomer, unassigned) [Compound 109A] | – | – | 76% | 81% | 2.72 ×10⁻⁶ cm/s | 63.3 ×10⁻⁶ cm/s | 23 | – | E (501 ≤ E ≤ 10.000) | E (501 ≤ E ≤ 10.000) | –
13 | CN(c1ccc(-c2cc3ncn(CC(F)(F)F)c(=O)c3cc2O)nn1)[C@H]1C[C@@H]2CCC[C@H]([C@H]1F)N2C (single isomer, unassigned) [Compound 109B] | – | – | 74% | 87% | 2.39 ×10⁻⁶ cm/s | 63.3 ×10⁻⁶ cm/s | 26 | – | E (501 ≤ E ≤ 10.000) | E (501 ≤ E ≤ 10.000) | –
14 | CN(c1ccc(-c2cc3ncn(CC(F)(F)F)c(=O)c3cc2O)nn1)[C@@H]1C[C@H]2CC(F)(F)[C@@H](C1)N2C (single isomer, unassigned) [Compound 110A] | – | – | 80% | 92% | 11 ×10⁻⁶ cm/s | 44.4 ×10⁻⁶ cm/s | 4 | – | E (501 ≤ E ≤ 10.000) | E (501 ≤ E ≤ 10.000) | –
15 | CN(c1ccc(-c2cc3ncn(CC(F)(F)F)c(=O)c3cc2O)nn1)[C@H]1C[C@@H]2CC(F)(F)[C@H](C1)N2C (single isomer, unassigned) [Compound 110B] | – | – | 86% | 93% | 11.7 ×10⁻⁶ cm/s | 47.4 ×10⁻⁶ cm/s | 4 | – | E (501 ≤ E ≤ 10.000) | E (501 ≤ E ≤ 10.000) | –
16 | CN1[C@@H]2CC[C@H]1[C@H](F)[C@H](N(c1ccc(-c3cc4ncn(CC(F)(F)F)c(=O)c4cc3O)nn1)C1CC1)C2 (single isomer, unassigned) [Compound 111A] | – | – | 90% | 83% | 0.89 ×10⁻⁶ cm/s | 44.3 ×10⁻⁶ cm/s | 45 | – | E (501 ≤ E ≤ 10.000) | E (501 ≤ E ≤ 10.000) | –

— patent publication US12509460B2 (Skyhawk Therapeutics, Inc., priority 2019, dated 2025)
